Assay results taken from the supplement of paper PMC10307832.

Assays:
Test in all cases: relative viability (nuclei count vs DMSO), 5 days (fraction); higher = more cells survive
[1] = compound: C1=CC(=CC=C1NC(=S)NNC2=C(C=C(C=C2[N+](=O)[O-])C(F)(F)F)[N+](=O)[O-])F [Kobe2602] + Cc1nc(Nc2ncc(C(=O)Nc3c(C)cccc3Cl)s2)cc(N2CCN(CCO)CC2)n1 [Dasatinib] (partner 0.075 µM)
Summary of the method: (§1)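 Lung cancer cell lines in 1536-well plates got either a single drug or a fixed anchor-drug dose together with five library-drug doses (not always all listed) in √10 steps, by pin tool, on the day after seeding. Nuclei were counted after 5 days, and relative viability is the treated-to-vehicle ratio of nuclei counts. Values are medians of duplicate plates.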

[2] = compound: COc1cc2nccc(Oc3ccc(NC(=O)C4(C(=O)Nc5ccc(F)cc5)CC4)cc3)c2cc1OC [Cabozantinib] + COc1cccc2cc(-c3nc([C@H]4CC[C@H](C(=O)O)CC4)n4ncnc(N)c34)[nH]c12 [OSI-027] (partner 0.5 µM)
Summary of the method: as §1

[3] = compound: C1=CC(=CC=C1NC(=S)NNC2=C(C=C(C=C2[N+](=O)[O-])C(F)(F)F)[N+](=O)[O-])F [Kobe2602] + Cc1nc(NC(=O)N2CCC[C@H]2C(N)=O)sc1-c1ccnc(C(C)(C)C(F)(F)F)c1 [Alpelisib] (partner 2 µM)
Summary of the method: as §1

[4] = compound: COc1cc2nccc(Oc3ccc(NC(=O)C4(C(=O)Nc5ccc(F)cc5)CC4)cc3)c2cc1OC [Cabozantinib] + Nc1nc2[nH]cc(CCc3ccc(C(=O)N[C@@H](CCC(=O)O)C(=O)O)cc3)c2c(=O)[nH]1 [Pemetrexed] (partner 0.2 µM)
Summary of the method: as §1

Cell Line	relative viability ([1]; first compound 0.2 µM)	relative viability ([1]; first compound 0.6325 µM)	relative viability ([1]; first compound 2 µM)	relative viability ([1]; first compound 6.325 µM)	relative viability ([1]; first compound 20 µM)	relative viability ([2]; first compound 0.02 µM)	relative viability ([2]; first compound 0.06325 µM)	relative viability ([2]; first compound 0.2 µM)	relative viability ([2]; first compound 0.6325 µM)	relative viability ([2]; first compound 2 µM)	relative viability ([3]; first compound 0.2 µM)	relative viability ([3]; first compound 0.6325 µM)	relative viability ([3]; first compound 2 µM)	relative viability ([3]; first compound 6.325 µM)	relative viability ([3]; first compound 20 µM)	relative viability ([4]; first compound 0.02 µM)	relative viability ([4]; first compound 0.06325 µM)	relative viability ([4]; first compound 0.2 µM)	relative viability ([4]; first compound 0.6325 µM)	relative viability ([4]; first compound 2 µM)
LCLC-97TM1	0.886	0.759	0.705	0.937	0.802	0.153	0.572	0.448	0.57	0.689	0.26	0.26	0.228	0.202	0.262	0.155	0.179	0.181	0.17	0.17
LU99A	0.427	0.461	0.433	0.525	0.615	0.231	0.298	0.274	0.31	0.311	0.515	0.525	0.415	0.542	0.607	0.18	0.199	0.216	0.173	0.229
NCI-H1299	–	–	–	–	–	–	–	–	–	–	1.02	1.05	1.08	1.13	1.05	–	–	–	–	–
NCI-H1355	0.647	0.737	0.683	0.664	0.627	0.291	0.477	0.412	0.458	0.411	0.791	0.938	0.79	0.751	0.845	1.05	1.12	1.04	1.07	1.06
HARA	0.258	0.311	0.321	0.252	0.286	0.309	0.633	0.377	0.57	0.555	0.934	0.943	0.797	0.752	0.791	0.244	0.234	–	0.279	0.226
LXF-289	0.253	0.23	0.248	0.208	0.245	0.612	0.856	0.753	0.816	0.78	1.01	1.02	0.976	1.06	0.994	0.957	0.953	0.868	0.883	0.897
201T	0.618	0.59	0.568	0.497	0.484	0.453	0.877	0.772	0.877	0.774	1.09	1.01	0.968	1.11	1.09	0.311	0.351	0.305	0.336	0.313
HCC-827	0.289	0.284	0.43	0.388	0.404	0.782	0.861	–	0.679	0.526	0.951	0.875	0.951	0.936	1.07	0.266	0.251	–	0.214	0.274
NCI-H1703	–	–	–	–	–	–	–	–	–	–	0.313	0.347	0.333	0.392	0.306	–	–	–	–	–
NCI-H1975	0.31	0.371	0.334	0.302	0.23	0.676	0.763	0.668	0.679	0.543	0.641	0.648	0.559	0.564	0.524	0.318	0.273	0.288	0.263	0.289
NCI-H2023	0.532	0.583	0.547	0.484	0.394	0.308	0.39	0.322	0.327	0.235	0.561	0.58	0.588	0.516	0.498	0.199	0.272	0.175	0.23	0.146
ChaGo-K-1	0.646	0.57	0.604	0.59	0.576	0.426	0.589	0.562	0.603	0.505	–	–	–	–	–	0.261	0.261	0.255	0.26	0.263
COR-L 105	0.392	0.366	0.357	0.362	0.338	0.682	0.785	–	0.667	0.71	0.771	1.08	0.78	0.973	0.938	1.1	1.19	0.9	0.999	1.02
SK-MES-1	0.368	0.489	0.4	0.415	0.305	0.542	0.718	0.649	0.665	0.512	0.817	0.955	0.844	0.79	0.877	1.02	1.01	1	0.904	0.937
A549	–	–	–	–	–	–	–	–	–	–	0.716	0.905	0.74	0.846	0.789	–	–	–	–	–
NCI-H23	0.697	0.879	0.776	0.817	1.02	–	0.729	0.645	0.624	0.489	0.669	0.863	0.68	0.829	0.811	–	0.819	0.471	0.655	0.476
NCI-H1993	0.575	0.501	0.544	0.532	0.607	0.511	0.528	0.569	0.519	0.543	0.67	0.844	0.591	0.669	0.666	0.486	0.507	0.484	0.561	0.662
Calu-6	–	–	–	–	–	–	–	–	–	–	0.883	1.04	0.96	1	0.987	–	–	–	–	–
NCI-H1648	–	–	–	–	–	0.255	0.256	0.278	0.281	0.266	–	–	–	–	–	0.73	0.908	–	0.793	0.82
NCI-H1623	0.577	0.555	0.427	0.532	0.575	0.392	0.483	0.38	0.414	0.436	–	–	–	–	–	–	–	–	–	–

Cell Line	relative viability ([1]; first compound 0.2 µM)	relative viability ([1]; first compound 0.6325 µM)	relative viability ([1]; first compound 2 µM)	relative viability ([1]; first compound 6.325 µM)	relative viability ([1]; first compound 20 µM)	relative viability ([2]; first compound 0.02 µM)	relative viability ([2]; first compound 0.06325 µM)	relative viability ([2]; first compound 0.2 µM)	relative viability ([2]; first compound 0.6325 µM)	relative viability ([2]; first compound 2 µM)	relative viability ([3]; first compound 0.2 µM)	relative viability ([3]; first compound 0.6325 µM)	relative viability ([3]; first compound 2 µM)	relative viability ([3]; first compound 6.325 µM)	relative viability ([3]; first compound 20 µM)	relative viability ([4]; first compound 0.02 µM)	relative viability ([4]; first compound 0.06325 µM)	relative viability ([4]; first compound 0.2 µM)	relative viability ([4]; first compound 0.6325 µM)	relative viability ([4]; first compound 2 µM)
NCI-H460	0.504	0.518	0.507	0.49	0.575	0.761	0.927	0.664	0.624	0.584	0.513	0.55	0.507	0.499	0.444	0.0695	0.0609	0.0626	0.0622	0.0696
NCI-H3122	0.853	0.806	0.739	0.465	1	0.97	0.963	1.07	1.06	1.4	0.807	0.753	0.764	0.784	0.885	0.212	0.203	0.195	0.199	0.209
HCC-44	–	–	–	–	–	–	0.646	0.556	0.557	0.408	0.852	0.793	0.767	0.725	0.737	0.659	0.609	0.735	0.701	0.724
HCC-78	0.413	0.393	0.373	0.427	0.535	–	0.439	0.287	0.291	0.258	0.359	0.359	–	0.391	0.445	–	0.941	0.908	0.926	0.89
COR-L23	0.507	0.561	0.482	0.55	0.555	0.88	0.965	0.94	0.895	0.784	0.752	0.827	0.809	0.885	0.83	0.215	0.197	0.191	0.185	0.193
NCI-H2009	0.282	0.368	0.332	0.336	0.312	0.642	0.724	0.695	0.674	0.496	1.12	1.22	1.13	1.3	1.18	1.08	1.07	1.02	1	1.08
NCI-H322M	0.254	0.25	0.245	0.241	0.297	0.475	0.596	0.486	0.572	0.54	0.808	0.81	0.828	0.827	0.792	0.614	0.744	0.578	0.628	0.613
NCI-H2228	0.415	0.549	0.504	0.502	0.529	0.495	0.871	0.576	0.449	0.508	0.724	0.712	0.747	0.713	0.776	0.348	0.305	0.338	0.283	0.276
NCI-H358	0.176	0.167	0.209	0.172	0.186	0.641	0.888	0.628	0.74	0.67	0.799	0.836	0.677	0.884	0.827	0.181	0.171	0.16	0.18	0.166
NCI-H2342	0.285	0.323	0.367	0.303	0.333	0.543	0.723	0.563	0.621	0.613	–	–	–	–	–	0.711	0.828	0.83	0.86	0.729
LK-2	0.377	0.35	0.319	0.274	0.342	0.158	0.193	0.211	0.229	0.225	1.04	1.2	1.26	1.07	1.04	–	0.427	0.236	0.266	0.296
NCI-H1755	0.408	0.407	0.359	0.408	0.437	0.627	0.729	0.775	0.585	0.575	0.906	0.874	0.919	0.866	0.956	0.449	0.415	0.436	0.425	0.422
ABC-1	0.615	0.568	–	0.769	0.47	0.538	0.497	0.489	0.567	0.456	0.785	1.06	1.13	1.11	1.08	–	–	–	–	–
NCI-H727	0.376	0.384	0.342	0.484	0.392	0.491	0.73	0.58	0.617	0.445	0.625	0.518	0.614	0.571	0.728	–	–	–	–	–
NCI-H1650	0.285	0.396	0.285	0.255	0.227	0.597	0.724	0.438	0.622	0.484	–	–	–	–	–	0.441	0.435	0.337	0.355	0.374
NCI-H522	0.83	0.977	0.914	0.874	0.952	0.585	0.79	0.7	0.766	0.767	–	–	–	–	–	1.16	0.972	0.943	1.25	0.934
SW 900	0.463	0.836	0.586	0.537	0.898	0.637	0.695	0.637	0.554	0.376	–	–	–	–	–	0.47	0.482	0.486	0.448	0.448
EBC-1	–	–	–	–	–	–	–	–	–	–	0.876	0.963	0.958	0.839	0.894	–	–	–	–	–
IA-LM	–	–	–	–	–	–	–	–	–	–	–	0.778	0.602	0.683	0.751	–	–	–	–	–
